Source: patent US10301280B2 (Plexxikon Inc., priority 2012, dated 2019)
pIC50: −log10 of the molar value.

Columns and labels:
c-kit mutant D816V = c-kit mutant D816V (Homo sapiens (Human), UniProt P10721, D816V/DEL694-753); assay: c-Kit mutant D816V biochemical assay (AlphaScreen); details: c-kit D816V biochemical inhibitory activity
Protocol: The c-kit mutant D816V (or kinase domain thereof) is an active kinase in AlphaScreen. IC50 values are determined with respect to inhibition of c-Kit mutant D816V kinase activity, where inhibition of phosphorylation of a peptide substrate is measured as a function of compound concentration. Compounds to be tested were dissolved in DMSO to a concentration of 20 mM. These were diluted 30 μl into 120 μl of DMSO (4 mM) and 1 μl was added to an assay plate. These were then serially diluted 1:3 (50 μl to 100 μl DMSO) for a total of 8 points. Plates were prepared such that each kinase reaction is 20 μl in 1× kinase buffer (25 mM HEPES, pH 7.2, 8 mM MgCl2, 2 mM MnCl2, 50 mM NaCl, 0.01% Brij, 1 mM DTT, 0.01% BSA), 5% DMSO and 10 μM ATP. Substrate was 30 nM biotin-(E4Y)10 (EMD Millipore, Cat#12-440). C-kit mutant D816V kinase was at 0.75 ng per sample. After incubation of the kinase reaction for 30 minutes at room temperature, 5 μl of donor beads (Streptavidin coated beads (Perkin Elmer Life Science) final concentration 7.5 μg/ml) in stop buffer (25 mM Hepes pH 7.5, 100 mM EDTA, 0.01% BSA) was added, the sample was mixed and incubated for 20 minutes at room temperature before adding 5 μl of acceptor beads (PY20 coated beads (Perkin Elmer Life Science) final concentration 7.5 ug/ml) in stop buffer. The samples were incubated for 60 minutes at room temperature and the signal per well was read on EnVision reader. Phosphorylated substrate results in binding of the PY20 antibody and association of the donor and acceptor beads such that signal correlates with kinase activity. The signal vs. compound concentration was used to determine the IC50.
Recombinant c-kit mutant D816V (residues 551-934, kinase insertion domain residues 694-753 deleted) with a 6x-histidine N-terminal tag was expressed in E. coli Arctic Express (DE3) RIL (Stratagene). Cells were grown in Terrific Broth (TB) media to an OD600 of 0.6 at 37° C. at which temperature was reduced to 10° C., protein was induced with 1.0 mM IPTG for 18 hours and harvested by centrifugation at 8000×g for 20 minutes. Cells were re-suspended in 0.1M KPO4 pH 8.0, 250 mM NaCl, 10% Glycerol, 0.75% NP-40, 25 mM Imidazole, 5 mM BME with 0.2 mg/ml Lysosyme, 2.0 mM PMSF, 25 μg/ml DNAse I, incubated in ice for 30 minutes and lyzed with a cell disruptor (MicroFluidics). The lysate was clarified by centrifugation at 20,000×g for 2 hours. The protein was captured with Talon resin (Clontech). Contaminating proteins were washed off with 25 mM Tris-HCl pH 8.3, 250 mM NaCl, 15% Glycerol, 1% Triton X-100, and protein eluted using 100 mM EDTA. The protein was further purified using Gel Filtration column 26/600 Superdex 200 (GE) in 50 mM Tris-HCl, pH 8.0, 250 mM NaCl, 15% Glycerol, 5 mM BME. The protein was aliquoted and flash-frozen in liquid Nitrogen.

[1] = test system: BaF3-FL KIT D816V or BaF3-FL KIT V560G/D816V cell line; assay: Cell-based assays of c-Kit mutant kinase activity (cell growth, ATPlite); details: at least one of the c-kit cell assays of Example 26
Procedure, shortened: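 IC50 derived from ATP-content luminescence (ATPlite) after three-day compound exposure at 37° C., 5% CO2. Cells: BaF3 rendered growth-dependent on full-length human KIT D816V or V560G/D816V, 1×10^4 per well, RPMI plus 10% FBS; 8 points, 1:3 steps, maximum 10 μM final, 0.2% DMSO.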

Sequence of c-kit mutant D816V (P10721 other isoform, or with tags, fused parts or gaps D816V/del 694-753): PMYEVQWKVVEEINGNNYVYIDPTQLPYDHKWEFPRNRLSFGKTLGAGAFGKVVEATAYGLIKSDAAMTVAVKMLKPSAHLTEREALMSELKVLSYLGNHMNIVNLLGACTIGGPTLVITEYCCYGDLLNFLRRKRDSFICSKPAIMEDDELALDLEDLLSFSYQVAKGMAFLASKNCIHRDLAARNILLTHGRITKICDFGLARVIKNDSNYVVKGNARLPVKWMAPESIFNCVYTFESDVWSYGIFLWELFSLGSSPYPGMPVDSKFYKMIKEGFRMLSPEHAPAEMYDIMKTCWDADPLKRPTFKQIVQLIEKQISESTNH

Cc1n[nH]c(C(=O)Nc2cnc3[nH]c(-c4ccc(F)cc4)cc3c2)c1F [P-2275, 4-fluoro-N-[2-(4-fluorophenyl)-1H-pyrrolo[2,3-b]pyridin-5-yl]-3-methyl-1H-pyrazole-5-carboxamide]
IC50 (c-kit mutant D816V): 0.0001 to 1 µM
pIC50 [1]: > 5.00

Cc1n[nH]c(C(=O)Nc2cnc3[nH]c(-c4cccc(C(=O)NCC(C)C)c4)cc3c2)c1C [P-2276, N-[2-[3-(isobutylcarbamoyl)phenyl]-1H-pyrrolo[2,3-b]pyridin-5-yl]-3,4-dimethyl-1H-pyrazole-5-carboxamide]
IC50 (c-kit mutant D816V): 0.0001 to 1 µM
pIC50 [1]: > 5.00

Cc1nc(F)ccc1-c1cc2cc(NC(=O)c3[nH]nc(C)c3C)cnc2[nH]1 [P-2283, N-[2-(6-fluoro-2-methyl-3-pyridyl)-1H-pyrrolo[2,3-b]pyridin-5-yl]-3,4-dimethyl-1H-pyrazole-5-carboxamide]
IC50 (c-kit mutant D816V): 0.0001 to 1 µM
pIC50 [1]: > 5.00

Cc1c(C(F)F)n[nH]c1C(=O)Nc1cnc2[nH]c(-c3ccc(F)cc3)cc2c1 [P-2287, 3-(difluoromethyl)-N-[2-(4-fluorophenyl)-1H-pyrrolo[2,3-b]pyridin-5-yl]-4-methyl-1H-pyrazole-5-carboxamide]
IC50 (c-kit mutant D816V): 0.0001 to 1 µM
pIC50 [1]: > 5.00

O=C(Nc1cnc2[nH]c(I)cc2c1)c1cccc2n[nH]cc12 [P-2288, N-(2-iodo-1H-pyrrolo[2,3-b]pyridin-5-yl)-2H-indazole-4-carboxamide]
IC50 (c-kit mutant D816V): 1 to 10 µM
pIC50 [1]: > 5.00
